Active and inactive are the calls of the source. The calls are words filed in the database; no cut-off is given here.

This is an account of results in ChEMBL document CHEMBL5620390, “A novel multifunctional mitochondrion-targeting NIR fluorophore probe inhibits tumour proliferation and metastasis through the PPARγ/ROS/β-catenin pathway” (Eur J Med Chem, 2023).

Data set [1] can be described thus: Toxicity in C57BL/6J mouse inoculated with mouse B16-F10 cells assessed as effect on heart morphology at 2 mg/kg, ip administered every other day for 22 days by H and E staining based assay. The format is organism-based. As to conditions: in vivo, 528 h, time 22 day.
The test system of data set [2] is B16-F10. Description: Induction of ROS generation in mouse B16-F10 cells assessed as reduction in PPARgamma expression level at 1.25 uM preincubated with rosiglitazone for 24 hrs followed by compound addition for 24 hrs. The format is functional, cell-based.
Data set [3] in a line: Renal toxicity in C57BL/6J mouse inoculated with mouse B16-F10 cells assessed as change in BUN level at 2 mg/kg, ip administered every other day for 22 days. The class given is organism-based. As to conditions: in vivo, 528 h, time 22 day.
Data set [4] can be described thus: Toxicity in C57BL/6J mouse inoculated with mouse B16-F10 cells assessed as effect on lung morphology at 2 mg/kg, ip administered every other day for 22 days by H and E staining based assay. As to conditions: in vivo, 528 h, time 22 day. The class given is organism-based.
In data set [5] the test system is A-375. Kind of data set: Induction of cell cycle arrest in human A-375 cells assessed as P27 protein accumulation at 0.31 to 1.25 uM after 24 hrs by Western blotting analysis. The class given is functional, cell-based. As to conditions: dose 0.31-1.25 µM.
Data set [6] has as its system B16-F10. Kind of data set: Antitumor activity against mouse Dil-stained B16-F10 cells inoculated in zebrafish assessed as reduction in tumor growth by measuring tumor fluorescence intensity at 0.31 to 1.25 uM by confocal microscopy analysis. The format is functional, cell-based. As to conditions: dose 0.31-1.25 µM.
The test system of data set [7] is B16-F10. Description: Antitumor activity against mouse B16-F10 cells inoculated in C57BL/6J mouse assessed as reduction in Ki-67 expression at 0.5 to 2 mg/kg, ip administered every other day and measured on day 22 by immunohistochemistry analysis. The format is functional, organism-based. As to conditions: dose 0.5-2 mg/kg, time 22.0 day.
Data set [8] has as its system B16-F10. Description: Inhibition of colony formation in mouse B16-F10 cells at less than 0.63 uM by crystal violet staining based assay. The class given is functional, cell-based.
In data set [9] the test system is A-375. Description: Induction of ROS generation in human A-375 cells assessed as reduction in SOD2 expression level at 1.25 uM preincubated with rosiglitazone for 24 hrs followed by compound addition for 24 hrs. The class given is functional, cell-based.
For data set [10], the system named is B16-F10. Description: Antitumor activity against mouse B16-F10 cells inoculated in C57BL/6J mouse assessed as reduction in tumor growth at 0.5 to 2 mg/kg, ip administered every other day and measured on day 22. As to conditions: dose 0.5-2 mg/kg, time 22.0 day. The class given is functional, organism-based.
The subject of data set [11] is A-375. Description: Inhibition of cell metastasis in human A-375 cells assessed as reduction in MMP9 protein level at 0.31 to 1.25 uM after 24 hrs by Western blotting analysis. The class given is functional, cell-based. As to conditions: dose 0.31-1.25 µM. Background: In western blotting, separated proteins are transferred to a membrane and probed.
A short description of data set [12]: Drug uptake in human A549 cells assessed as fluorescence intensity at 2.5 uM incubated for 1 hr by confocal laser scanning microscopic analysis. The format is ADME, cell-based. As to conditions: a549, 1 h.
In data set [13] the test system is A-375. Description: Induction of ROS generation in human A-375 cells assessed as reduction in GPX1 expression level at 1.25 uM preincubated with rosiglitazone for 24 hrs followed by compound addition for 24 hrs. The class given is functional, cell-based.
A short description of data set [14]: Toxicity in C57BL/6J mouse inoculated with mouse B16-F10 cells assessed as effect on spleen morphology at 2 mg/kg, ip administered every other day for 22 days by H and E staining based assay. The class given is organism-based. As to conditions: in vivo, 528 h, time 22 day.
For data set [15], the system named is B16-F10. Kind of data set: Antitumor activity against mouse B16-F10 cells inoculated in C57BL/6J mouse assessed as reduction in tumor volume at 0.5 to 2 mg/kg, ip administered every other day and measured on day 22. The format is functional, organism-based. As to conditions: dose 0.5-2 mg/kg, time 22.0 day.
Data set [16] has as its system B16-F10. Kind of data set: Antiproliferative activity against mouse B16-F10 cells assessed as inhibition of cell growth after 24 to 72 hrs by MTT assay. The format is functional, cell-based. A general note: Tetrazolium assays rely on reduction of a dye to a coloured formazan, in cell work by metabolically active cells.
Data set [17] concerns B16-F10. Description: Inhibition of Wnt/beta-catenin signaling in mouse B16-F10 cells assessed as reduction in TCF4 expression at 1.25 uM incubated for 24 hrs. The format is cell-based.
Data set [18] relates to B16-F10. Description: Induction of ROS generation in mouse B16-F10 cells assessed as reduction in PPARgamma expression level at 1.25 uM incubated for 24 hrs. The format is functional, cell-based.
Data set [19] relates to A-375. Description: Inhibition of Wnt/beta-catenin signaling in human A-375 cells assessed as reduction in TCF4 expression at 1.25 uM preincubated with rosiglitazone for 24 hrs followed by compound addition and measured after 24 hrs in presence of H2O2. The format is cell-based.
Data set [20] concerns B16-F10. Description: Induction of cell cycle arrest in mouse B16-F10 cells assessed as reduction in Cdk4 protein level at 0.31 to 1.25 uM after 24 hrs by Western blotting analysis. The class given is functional, cell-based. As to conditions: dose 0.31-1.25 µM.
Data set [21] concerns A-375. Kind of data set: Induction of ROS generation in human A-375 cells assessed as reduction in PPARgamma expression level at 1.25 uM incubated for 24 hrs. The format is functional, cell-based.
In data set [22] the test system is B16-F10. Kind of data set: Induction of mitochondrial damage in mouse B16-F10 cells assessed as change in mitochondrial morphology at 2.5 uM incubated for 24 hrs by TEM analysis. The class given is functional, cell-based.

For the compound `CC[N+]1=C(/C=C/C2=C(Cl)C(=C/C=C3\N(CCCCCC(=O)O/C(=N/C4CCCCC4)NC4CCCCC4)c4ccccc4C3(C)C)/CCC2)C(C)(C)c2ccccc21.[Br-]`, the Activity result was “Non-Toxic” in data set [1]; “Non-Toxic” in data set [3]; “Non-Toxic” in data set [4]; “Non-Toxic” in [14]; “Dose-Dependent Effect” in the data set on B16-F10 [16] (time 24-72 hrs). Further, the outcome in the data set on B16-F10 [2], in the data set on A-375 [9] and in the data set on A-375 [13] was inactive. For the same compound, the outcome in the data set on A-375 [5], in the data set on B16-F10 [6], in the data set on B16-F10 [7], with B16-F10 [10], in the data set with B16-F10 [15] and with B16-F10 [18] was Active. Besides, the outcome in the data set on B16-F10 [20], in the data set on A-375 [21] and in the data set on B16-F10 [22] was Active. Also, the inhibition result with B16-F10 [8], in the data set with A-375 [11] and in the data set on B16-F10 [17] was “Active” each time. Also, in [12], the Drug uptake result was “Active”. In the data set on B16-F10 [16], the 50% inhibitory concentration (IC50) came to 410 nM. Also, in the data set with A-375 [19], the inhibition result is “inactive”.

For orientation: IC50 means the concentration needed to halve the response being measured.
